Data on four compounds can be found in patent US12116422B2, “Stapled peptide and use thereof in preparation of drug for treating pancreatic cancer” (Ruijin Hospital, Shanghai Jiao Tong University School of …, priority 2022, dated 2024).

By Kd is commonly meant the free concentration of one partner at which half of the binding sites on the other are occupied at equilibrium, for simple one-to-one binding. Read a high Kd as weaker binding.

Entries after “also recorded” stand apart in the source; their conditions may differ. Where two headings read alike, the source gives them in different places. Where a SMILES comes first, the peptide text is derived from it. Bridges are numbered along the chain shown (N, C = ends). Where no end group is shown, it is not given here. [ ]: non-standard residue; d: D form. R5 = C=CCCC[C@@](C)(N)C(=O)O

The target of series [1] is T1, ANK domain of N1ICD (Homo sapiens, UniProt P46531). The experiment in a line: KD (M). The text has this:
Table printed on a drawing sheet, FIG. 1C
(§1) Head of the field: KD (M)
First copying reader's note: Brackets drawn over the sequences join the two S5 residues of each staple; the SAH-mAH2-5 row is printed in lighter (highlighted) type.
Target sequence in this assay (P46531 19-2555 limits assumed): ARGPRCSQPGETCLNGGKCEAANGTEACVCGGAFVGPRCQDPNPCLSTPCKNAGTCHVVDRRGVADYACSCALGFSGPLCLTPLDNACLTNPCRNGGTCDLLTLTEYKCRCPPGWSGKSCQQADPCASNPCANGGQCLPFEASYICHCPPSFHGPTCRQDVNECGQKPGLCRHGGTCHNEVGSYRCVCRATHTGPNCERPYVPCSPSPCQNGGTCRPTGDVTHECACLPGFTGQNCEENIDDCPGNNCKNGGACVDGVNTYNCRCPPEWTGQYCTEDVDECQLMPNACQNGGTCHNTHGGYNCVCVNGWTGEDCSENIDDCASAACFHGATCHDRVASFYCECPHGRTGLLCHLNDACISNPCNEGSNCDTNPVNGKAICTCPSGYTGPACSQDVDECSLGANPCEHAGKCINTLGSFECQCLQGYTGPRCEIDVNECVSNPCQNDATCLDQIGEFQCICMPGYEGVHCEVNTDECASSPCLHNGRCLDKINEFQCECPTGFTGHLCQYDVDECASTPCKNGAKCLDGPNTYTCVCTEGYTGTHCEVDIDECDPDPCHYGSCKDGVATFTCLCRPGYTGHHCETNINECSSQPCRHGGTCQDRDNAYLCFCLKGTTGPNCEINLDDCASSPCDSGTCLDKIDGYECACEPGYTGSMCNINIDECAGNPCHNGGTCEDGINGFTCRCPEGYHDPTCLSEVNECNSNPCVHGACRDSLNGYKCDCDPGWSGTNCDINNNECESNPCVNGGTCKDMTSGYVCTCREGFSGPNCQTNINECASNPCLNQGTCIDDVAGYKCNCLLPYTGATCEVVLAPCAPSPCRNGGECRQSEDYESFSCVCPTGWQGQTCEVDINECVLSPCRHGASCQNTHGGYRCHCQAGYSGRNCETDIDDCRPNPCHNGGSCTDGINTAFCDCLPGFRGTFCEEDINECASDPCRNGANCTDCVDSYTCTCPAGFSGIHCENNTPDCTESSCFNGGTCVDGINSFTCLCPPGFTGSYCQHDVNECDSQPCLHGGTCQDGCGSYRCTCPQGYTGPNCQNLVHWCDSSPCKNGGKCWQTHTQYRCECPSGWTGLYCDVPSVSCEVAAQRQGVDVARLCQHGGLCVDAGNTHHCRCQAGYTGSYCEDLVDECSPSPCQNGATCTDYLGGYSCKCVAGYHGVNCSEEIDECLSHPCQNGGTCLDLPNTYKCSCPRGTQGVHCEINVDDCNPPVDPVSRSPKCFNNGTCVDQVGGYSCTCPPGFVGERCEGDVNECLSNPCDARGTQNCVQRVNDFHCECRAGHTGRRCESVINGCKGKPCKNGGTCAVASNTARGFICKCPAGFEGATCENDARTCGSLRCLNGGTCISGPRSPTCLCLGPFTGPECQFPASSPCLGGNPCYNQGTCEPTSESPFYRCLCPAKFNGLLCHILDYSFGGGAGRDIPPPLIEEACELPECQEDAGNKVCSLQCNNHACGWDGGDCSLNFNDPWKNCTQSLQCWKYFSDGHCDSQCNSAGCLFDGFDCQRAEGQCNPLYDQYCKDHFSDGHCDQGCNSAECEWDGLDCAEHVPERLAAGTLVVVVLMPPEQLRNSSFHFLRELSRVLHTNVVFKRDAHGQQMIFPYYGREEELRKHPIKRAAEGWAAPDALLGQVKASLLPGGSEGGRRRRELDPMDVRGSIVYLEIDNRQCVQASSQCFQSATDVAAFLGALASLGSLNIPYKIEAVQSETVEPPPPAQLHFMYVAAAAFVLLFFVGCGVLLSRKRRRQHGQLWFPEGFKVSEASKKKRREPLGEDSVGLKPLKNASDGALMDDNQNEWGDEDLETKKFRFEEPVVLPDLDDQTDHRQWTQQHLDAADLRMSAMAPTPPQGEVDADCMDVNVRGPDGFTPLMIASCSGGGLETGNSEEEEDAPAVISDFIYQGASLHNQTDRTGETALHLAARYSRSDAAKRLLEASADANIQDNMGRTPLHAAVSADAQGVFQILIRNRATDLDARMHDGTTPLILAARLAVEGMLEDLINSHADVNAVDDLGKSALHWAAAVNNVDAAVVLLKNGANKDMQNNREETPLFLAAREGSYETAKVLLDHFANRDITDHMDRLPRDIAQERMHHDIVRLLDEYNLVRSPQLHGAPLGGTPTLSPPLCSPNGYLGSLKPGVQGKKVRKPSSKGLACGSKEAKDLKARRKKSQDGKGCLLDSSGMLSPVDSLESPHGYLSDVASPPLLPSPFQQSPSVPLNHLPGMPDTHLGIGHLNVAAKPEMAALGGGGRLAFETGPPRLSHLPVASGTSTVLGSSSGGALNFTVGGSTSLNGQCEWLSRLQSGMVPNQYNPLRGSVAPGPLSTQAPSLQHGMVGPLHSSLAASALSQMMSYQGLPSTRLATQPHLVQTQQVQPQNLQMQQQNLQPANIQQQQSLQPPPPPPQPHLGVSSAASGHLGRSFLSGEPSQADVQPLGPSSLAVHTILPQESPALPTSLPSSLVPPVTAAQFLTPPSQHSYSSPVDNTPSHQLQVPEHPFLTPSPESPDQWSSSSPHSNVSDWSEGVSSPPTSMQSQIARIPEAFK

Series [2] concerns the target T1, ANK domain of N1ICD. Description: SPR binding to the ANK domain. The protocol: (§2) Surface plasmon resonance (SPR) analysis was conducted with a BlAcore T200 instrument (GE Healthcare, Pittsburgh, USA) to analyze the binding kinetics between N1DARP or SAH-mAH2-5 and a monitor peptide. Dissociation constants (KD) were calculated according to BIA evaluation software.
(§3) A tertiary structure simulating the N1DARP was analyzed online using I-TASSAR, a hierarchical server for protein structure prediction, and two α-helical peptides (AH1 and AH2) were identified (FIG. 1A, left side). […] Furthermore, in order to identify the essential amino acids that mediated the interaction between mAH2 and ANK, amino acid substitutions were conducted for each amino acid of mAH2 substituted with Ala, which were then subjected to SPR analysis. […] Based on the above evidence, mAH2 was then further modified by inserting molecular staples at 5 positions and denoted as stapled α-helices (SAHs).
Target sequence in this assay (P46531 1872-2126 limits assumed): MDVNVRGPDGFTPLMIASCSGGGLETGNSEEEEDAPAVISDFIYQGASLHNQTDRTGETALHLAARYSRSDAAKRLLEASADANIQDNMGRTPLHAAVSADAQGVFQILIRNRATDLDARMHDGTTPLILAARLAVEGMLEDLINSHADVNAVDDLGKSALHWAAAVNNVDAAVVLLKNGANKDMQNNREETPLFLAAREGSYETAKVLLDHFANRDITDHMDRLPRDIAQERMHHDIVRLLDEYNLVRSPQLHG
(In general: SPR reads the build-up and loss of mass on a sensor chip optically.)

Series [3] concerns pancreatic cancer patient-derived organoids. Description: Growth of pancreatic cancer patient-derived organoids (PDOs). Format: cell-based, human. From the text:
Four pancreatic cancer tissues were obtained from Ruijin Hospital Affiliated to Shanghai Jiaotong University School of Medicine for organoid culture. All enrolled patients met the following criteria: (i) pathologically diagnosed with pancreatic cancer; (ii) with relatively complete clinicopathological and follow-up data; (iii) without preoperative chemotherapy. Written informed consent was obtained from all relevant patients for the trial, and the study protocol was approved by the Ethics Committee of Ruijin Hospital.
Establishment of patient-derived pancreatic cancer organoids: the normal pancreatic tissues were excised, remaining pancreatic cancer tissues were minced, and enzymatically digested with collagenase (1 mg/ml to 2 mg/ml; Sigma-Aldrich, C9407) in a water bath at 37° C. for 1 h to 2 h. A resulting suspension was filtered through a 100 μm filter to retain tissue debris. The tissue debris was centrifuged at 530 g for 5 min to obtain organoid fractions and resuspended in an RPMI 1640 medium; a resulting suspension was mixed with a cold Matrigel (BD Biocoat, 356234, 10 mg/ml) and then solidified on a pre-warmed 24-well suspension plate at 37° C. for 20 min. After complete gelation, […] of an organoid medium was added to each well, and the plate was transferred to a 37° C./5% humidified CO2 incubator with 2% or ambient O2. […]

The test system of the next series is PDOX model of PDAC. Description: PDO xenograft (PDOX) models in nude mice, tumor volume and survival. Format: in vivo, Nude BALB/c mice. The settings on record: high USP10 and N1ICD expression; 1/2/3/4/5 mg/kg intravenously weekly. The protocol: All animal experimental procedures met institutional ethical requirements and were approved by the Animal Use and Care Committee of Shanghai Jiaotong University School of Medicine. Nude BALB/c mice (male, 4 to 6 weeks old) were purchased from the Chinese Academy of Sciences (Shanghai, China) and kept in a specific pathogen-free facility. For a subcutaneously-injected tumor model, the pancreatic cancer patient-derived organoids (5×10^6 cells/site) were injected subcutaneously into the right side of each mouse. From the first injection, a tumor volume was measured every 7 d using the formula: tumor volume (mm^3)=½(a×b^2), where “a” represented the longest longitudinal diameter and “b” represented the longest transverse diameter.
To evaluate the efficacy of SAH-mAH2-5 in vivo, Capan1 cells (1×10^7 cells/site) and four organoids (5×10^6 cells/site) were subcutaneously injected. One week after inoculation, SAH-CTRL/SAH-mAH2-5 (1/2/3/4/5 mg/kg) and GEM (50 mg/kg) were intravenously injected weekly at the indicated concentrations. Within 35 d from the first injection, the tumor volume was measured every 7 d, and the formula was: tumor volume (mm^3)=½(a×b^2). […]

The test system of the next series is N1ICD. The experiment in a line: Western blot of N1ICD expression, stability and ubiquitination in Capan1 cells. Format: cell-based. From the text:
(§4) The pancreatic cancer cell line Capan1 was purchased from the Cell Bank of the Chinese Academy of Sciences. The cells were STR-identified, negative for mycoplasma, and cultured in the RPMI 1640 supplemented with 10% fetal bovine serum and antibiotics.
(§5) A RIPA buffer was mixed with a cocktail of proteases and phosphatase inhibitors for lysing cell samples. Proteins were separated by 10% SDS-PAGE and transferred to a PVDF membrane. The images were generated by a Tanon 5200 chemiluminescence imaging system (Shanghai Tanon Life Science Instrument Co., Ltd.). The corresponding proteins were detected with primary antibodies and appropriate secondary antibodies. The primary antibodies were as follows: anti-USP10 (CST, #8501, 1:1000 for WB, 1:200 for IP), anti-β-actin (CST, #3700, 1:1000 for WB), and anti-N1ICD (CST, #4147, 1:1000 for WB, 1:200 for IP).
Immunoprecipitation analysis: pancreatic cancer cells transfected with indicated plasmid or lentivirus were collected and lysed for 10 min on ice. A resulting lysate was centrifuged to obtain a supernatant, which was then incubated with appropriate antibodies and protein A/G+agarose (Santa Cruz Biotechnology) overnight at 4° C. A resulting immune complex was washed 4 to 6 times and boiled in a 2×SDS sample buffer for 5 min. A resulting product was separated and co-precipitated using SDS-PAGE and blotted with specific antibodies. A resulting binding protein was dissolved in the SDS sample buffer and analyzed by immunoblotting.
On the technique in general: In western blotting, separated proteins are transferred to a membrane and probed.

Series [4] in a line: In vivo safety in healthy mice (serum biochemistry, HE staining). The settings on record: 2 mg/kg intravenously weekly for 4 weeks.
Description: To roughly assess the toxicity of SAH-mAH2-5, healthy BALB/c nude mice (5 weeks) were intravenously injected with SAH-CTRL or SAH-mAH2-5 (2 mg/kg) weekly for 4 weeks. The mice were sacrificed, and organs such as pancreas, lung, spleen, kidney, liver, and colon were extracted, which were then subjected to HE staining to screen morphological abnormalities. In addition, serum was collected for biochemical analysis of alanine aminotransferase (ALT), aspartate aminotransferase (AST), blood urea nitrogen (BUN), and creatinine (CR) by a chemical analyzer TBA-40FR (Toshiba Medical Systems, Japan).
The nature of series [5]: Incubation with mouse plasma. Format: in vitro ADME. The protocol: (§6) To examine the physicochemical stability of SAH-mAH2-5, mAH2, Pep2-mAH2, and SAH-mAH2-5 were incubated with proteinase K, pepsin, and mouse plasma.
For the next series, the target named is T2, USP10-N1ICD interaction (Homo sapiens, UniProt P46531).
T2 construct: endogenous in cells; host or cells: Capan1
Description: Immunoprecipitation/Western blot of the USP10-N1ICD interaction in Capan1 cells. Format: cell-based.
Description: as §4, §5
Immunoprecipitation analysis: pancreatic cancer cells transfected with indicated plasmid or lentivirus were collected and lysed for 10 min on ice. A resulting lysate was centrifuged to obtain a supernatant, which was then incubated with appropriate antibodies and protein A/G+agarose (Santa Cruz Biotechnology) overnight at 4° C. A resulting immune complex was washed 4 to 6 times and boiled in a 2×SDS sample buffer for 5 min. […] A resulting binding protein was dissolved in the SDS sample buffer and analyzed by immunoblotting.

Another series deals with proteinase K, pepsin. Description: Incubation with proteinase K and pepsin. The format is in vitro ADME. The protocol:
as §6

The subject of another series is ANK1. Description: SPR binding to the α-helical regions ANK1 to ANK6. The procedure: as §2, §3
Series [6] concerns the target T1, ANK domain of N1ICD. The experiment in a line: KD (M).
Description: Table printed on a drawing sheet, FIG. 1D
as §1
Target sequence in this assay (P46531 19-2555 limits assumed): as the sequence (P46531 19-2555 limits assumed) above
First copying reader's note: Alanine scan of mAH2; the substituted A is printed in lighter type, and the rows mAH2-7, mAH2-9 and mAH2-14 are highlighted in lighter type.
Where the first naming reader finds the target: passage: A tertiary structure of the ANK domain of N1ICD was obtained from a PDB database
This is another data set of the same source.

T2 sequence (P46531 1754-2555 limits assumed): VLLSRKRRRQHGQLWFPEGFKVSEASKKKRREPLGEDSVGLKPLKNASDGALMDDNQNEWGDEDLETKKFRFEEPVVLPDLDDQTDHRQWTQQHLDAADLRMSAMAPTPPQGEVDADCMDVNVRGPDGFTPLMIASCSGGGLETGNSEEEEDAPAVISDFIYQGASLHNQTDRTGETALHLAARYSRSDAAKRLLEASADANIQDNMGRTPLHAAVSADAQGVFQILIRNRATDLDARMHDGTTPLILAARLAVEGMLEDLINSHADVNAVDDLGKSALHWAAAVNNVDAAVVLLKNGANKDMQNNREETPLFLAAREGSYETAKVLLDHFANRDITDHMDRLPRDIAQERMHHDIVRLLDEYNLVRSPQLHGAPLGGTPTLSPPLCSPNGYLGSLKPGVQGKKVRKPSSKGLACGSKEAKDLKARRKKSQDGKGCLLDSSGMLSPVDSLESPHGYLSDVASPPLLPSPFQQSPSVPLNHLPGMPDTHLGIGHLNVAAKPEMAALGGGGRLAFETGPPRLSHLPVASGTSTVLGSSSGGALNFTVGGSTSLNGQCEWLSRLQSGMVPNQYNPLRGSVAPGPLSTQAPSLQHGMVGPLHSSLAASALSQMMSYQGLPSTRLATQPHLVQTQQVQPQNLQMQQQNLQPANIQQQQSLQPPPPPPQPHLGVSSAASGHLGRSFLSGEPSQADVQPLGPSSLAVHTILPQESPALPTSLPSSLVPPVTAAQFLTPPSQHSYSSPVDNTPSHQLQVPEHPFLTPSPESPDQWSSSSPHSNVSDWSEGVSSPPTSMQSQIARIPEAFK

`CC[C@H](C)[C@H](NC(=O)[C@H](CCCNC(=N)N)NC(=O)[C@H](CCCCN)NC(=O)[C@H](C)NC(=O)[C@@H](N)Cc1ccc(O)cc1)C(=O)N[C@]1(C)CCC/C=C\CCC[C@](C)(C(=O)N[C@@H](CO)C(=O)N[C@@H](CCCCN)C(=O)N[C@@H](CCC(N)=O)C(=O)N[C@@H](CC(C)C)C(=O)O)NC(=O)[C@H](CC(C)C)NC(=O)[C@H](CCC(N)=O)NC(=O)[C@H](Cc2ccc(O)cc2)NC1=O` [SAH-mAH2-3] (H-YAKRI[R5]YQL[R5]SKQL-OH; staple (Z) 6-10) gave a dissociation constant Kd on ANK domain of N1ICD [1] of 1.05 nM.
Regarding `CC[C@H](C)[C@H](NC(=O)[C@H](CCCNC(=N)N)NC(=O)[C@H](CCCCN)NC(=O)[C@H](C)NC(=O)[C@@H](N)Cc1ccc(O)cc1)C(=O)N[C@]1(C)CCC/C=C/CCC[C@](C)(C(=O)N[C@@H](CC(C)C)C(=O)O)NC(=O)[C@H](CCCCN)NC(=O)[C@H](CO)NC(=O)[C@H](CC(C)C)NC(=O)[C@H](CC(C)C)NC(=O)[C@H](CCC(N)=O)NC(=O)[C@H](Cc2ccc(O)cc2)NC1=O` [SAH-mAH2-5, stapled α-helix-modified α-helix 2-5] (H-YAKRI[R5]YQLLSK[R5]L-OH; staple (E) 6-13), on ANK domain of N1ICD [2], the “affinity for the ANK domain” value was “strongest binding ability; also recorded: highest affinity for ANK”. Besides, in series [3] (PDAC with high USP10 and N1ICD expression levels), the organoid growth inhibition entry is listed as “significant organoid growth inhibition”. Also, in series [3] (PDAC-1 and PDAC-3 models with relatively low USP10 and N1ICD expression levels), the inhibition effect entry is “poor inhibition effect”. Further, the median survival entry in the series with PDOX model of PDAC is “prolonged median survival”. In the series on N1ICD (Capan1 cells), the N1ICD deubiquitination result is “inhibited”; the “Notch signaling and N1ICD expression” value is “inhibiting Notch signaling and its N1ICD expression in a time- and dose-dependent manner”. For the same compound, the N1ICD stability result in the series with N1ICD (Capan1 cells after cycloheximide (CHX)) was “inhibited N1ICD stability”. Further, in [4], the “morphology of major organs (HE staining)” value was “without affecting the liver, lungs, and kidneys and other major normal tissues and organs; also recorded: no morphological changes in major functional organs”; the “serum ALT, AST, BUN and creatinine” value is “no abnormalities in the main indicators of liver and kidney functions”. Besides, in series [5], the half-life in plasma entry is “prolonged the half-life in plasma”. The USP10-N1ICD interaction entry on USP10-N1ICD interaction is on record as “inhibit USP10-N1ICD interaction”. In the series on proteinase K, pepsin, the resistance to proteases result is recorded as “significantly enhanced the resistance to proteases”.
Regarding YAKRIFYQLLSKEL [AH2], at ANK domain of N1ICD [2], the “affinity for the ANK domain” value is given as “higher affinity to the ANK domain”. Moreover, in the series on ANK1, the “interaction with ANK1” value was “readily interacted with ANK1”. The same compound gave a Kd on ANK domain of N1ICD [6] of 60.4 nM.
Consider YAKRIFYQLLSKQL [mAH2, YAKRIFYQLLSKQL], for which the “affinity for the ANK domain” value at ANK domain of N1ICD [2] is listed as “comparable affinity for ANK”. Further, at ANK domain of N1ICD [1], the affinity, expressed as Kd, was 60.4 nM.
